≈ marks a conversion by molar mass, not a printed value. Where “and” joins values, the source holds several entries; their conditions need not be identical. Equal values may be shown once. Read-outs that look alike come from different tables or passages of the source. Marks after values point to notes of the source that are not given here. Blank lines part the entries; values can stand above or below the compound they belong to.
How the values were obtained:
[1] = tested on: Propionibacterium acnes NCTC 737; assay: Disc diffusion assay (DDA) and synergy disc diffusion assay (SDDA); type: cell-based
Experimental: (c) Disc Diffusion Assay (DDA)
This is an internationally recognised standard method for qualitatively assessing the antimicrobial activity of a compound or combination of compounds.
A sterile paper disc was impregnated with a sample of the test compound(s) in a suitable solvent (or applied neat) and 30 minutes allowed for any of the solvents to evaporate (where possible). The disc was then placed on an agar plate onto which the test micro-organism had been inoculated. The plate was then incubated under the conditions described above, following which it was examined visually for signs of microbial growth. […] The diameter of this zone of “inhibition” was measured using a ProtoCOL™ automated zone sizer (Synbiosis, Cambridge, UK).
(d) Synergy Disc Diffusion Assay (SDDA)
This is a variation on the DDA method, in which two compounds are tested together for their combined antimicrobial activity.
Two test compounds A and B were placed on a single paper disc and the above described DDA procedure repeated.
The two compounds were then subjected in combination to the SDDA assay described above.
MIC/MBC experiments were performed in duplicate and (S)DDA experiments in triplicate.
The tropolone was dissolved in ethanol.

P. acnes NCTC 737 [2] = assay: Fixed ratio combination MIC/MBC assays; type: cell-based, Propionibacterium acnes
Experimental: (§1) (g) Fixed Ratio Combination MIC/MBC Assays
(§2) This method used a sterile 96-well microtitre plate, capable of holding about 200 μl of liquid per well. The wells contained liquid culture medium and ranges of decreasing concentrations of the relevant test compounds alone in doubling dilutions (eg 1000, 500, 250, 125 . . . μg/ml, etc. down to 0.49 μg/ml) or doubling dilutions of a combination of two compounds mixed initially at a fixed concentration ratio (based on molarity in this instance). The culture medium was as described above.
(§3) The wells were inoculated with a liquid suspension of freshly grown micro-organism and incubated under the conditions described above. After incubation, the microtitre plate was examined visually (with the aid of a light box) for cloudiness in each well, which would indicate microbial growth. The MIC value was recorded as the lowest concentration of test compounds alone or concentrations of the mixture of the two test compounds required to inhibit microbial growth, ie the liquid in the well remained clear.
(§4) The assays were conducted in triplicate and included both negative (culture medium with no micro-organisms) and positive (culture medium plus diluting solvent(s) plus micro-organism) controls.
(§5) These samples were then individually sub-cultured on antibiotic-free agar medium, under the incubation conditions described above. Following incubation they were examined visually for microbial growth.
(§6) Thus for each mixture tested, the FIC for compound A (FICA)=MIC for (A+B)/MIC for A alone. Similarly the FIC for compound B (FICB)=MIC for (A+B)/MIC for B alone. The overall FICI=FICA+FICB.
(§7) FBC & FBCI were calculated in the same manner using recorded MBC values.

[3] = tested on: Propionibacterium acnes NCTC 737; assay: Minimum biocidal concentration (MBC) assay; type: cell-based
Experimental: (§8) The first test organism used was Propionibacterium acnes NCTC 737. This is a propionibacterial strain and is the type strain of the genus; it is fully susceptible to antibiotics. The propionibacteria are clinically significant due to their involvement in acne. They are also opportunistic pathogens in compromised hosts. Activity observed against these micro-organisms is expected to be a good predictor of activity against acne.
(§9) The propionibacteria were cultured and maintained on Wilkins-Chalgren Anaerobe Medium (agar and broth) at pH 6.0; all cultures were incubated anaerobically at 37° C. for 72 hours.
(b) Minimum Biocidal Concentration (MBC) Assay
This assay, normally carried out after an MIC assay, determines the minimum concentration of a compound that is lethal to the micro-organism being tested.
as §5

C. striatum NCTC 764 = assay: Fixed ratio combination MIC/MBC assays; type: cell-based, Corynebacterium striatum
Experimental: The second test organism used was Corynebacterium striatum NCTC 764. This is a Gram-positive bacterium which is closely related to organisms (aerobic diphtheroids of the genus Corynebacterium) that cause body odour (Guillet et al, Eur J Dermatol, 2000 Jan-Feb, 10(1): 41-2). The C. striatum was cultured and maintained on Mueller-Hinton Medium (agar and broth) at pH 7.3 (±0.1); cultures were incubated aerobically at 37° C. for 18-24 hours.
as §1, §2, §3, §4, §5, §6, §7

[4] = tested on: Propionibacterium acnes NCTC 737; assay: Minimum inhibitory concentration (MIC) assay; type: cell-based
Experimental: as §8, §9
(a) Minimum Inhibitory Concentration (MIC) Assay
This is a standard international method for quantitatively assessing the antimicrobial activity of a compound in a liquid medium. The method used a sterile 96-well microtitre plate, capable of holding about 200 μl of liquid per well. The wells contained liquid culture medium and ranges of decreasing concentrations of the relevant test compound in doubling dilutions (eg 1000, 500, 250, 125 . . . μg/ml, etc, down to 0.49 μg/ml). The culture media were as described above.
as §3, with “of test compound required to” for “of test compounds alone or concentrations of the mixture of the two test compounds required to”, “ie the lowest concentration for which the liquid in” for “ie the liquid in”
The assays included both negative (culture medium with no micro-organisms) and positive (culture medium plus diluting solvent plus micro-organism) controls.

P. acnes NCTC 737 [5] = assay: Synthetic sebum time-to-kill assay; type: cell-based, Propionibacterium acnes; details: copper sulphate 97.5 mg/L, tropolone 195 mg/L; for Log10 change: T0 to T4 hours; for Log10 cfu/ml (T4 hours): after 4 hours, lowest detectable level 3.0; for Log10 cfu/ml (T0 hours): start count
Experimental: (f) Synthetic Sebum Time-to-Kill Assay This quantitative assay was designed to assess the level of kill of a P. acnes culture in a synthetic sebum (non-aqueous environment) over a defined time period (in this case 4 hours). A culture of P. acnes NCTC 737 was inoculated into a synthetic sebum (a liquid mixture of lipid components designed to simulate human sebum) containing the relevant test compound dissolved in 1-octanol. […] The plates were then incubated as described above and subsequently examined visually for growth. The numbers of viable microbial colonies on the plates were counted with the aid of a colony counter and converted to colony-forming units per ml (cfu/ml) using the appropriate dilution factor. Cell counts conducted in the absence of test compound acted as positive controls. Mixtures of tropolone and copper (II) sulphate, containing various relative proportions of the two actives, were subjected to synthetic sebum time-to-kill assays against P. acnes NCTC 737, as described above. All assays were conducted in triplicate.

Compound: CC(=O)[O-].[Cu+] [Copper (I) acetate]
(S)DDA with tropolone [1]: 32.35 mm
DDA zone of inhibition diameter [1]: 32.14 mm
SDDA area increase [1]: 1.29%
SDDA increase [1]: 0.21 mm
MBC (P. acnes NCTC 737 [2]; compound alone): 23.3 µg/mL
MIC (P. acnes NCTC 737 [2]; compound alone): 23.3 µg/mL
MBC [3]: 31.25 µg/mL
MIC/MBC ratio [3]: 0.25
MBC (C. striatum NCTC 764): >62.8** μg/ml
MIC (C. striatum NCTC 764): >62.8** μg/ml
MIC [4]: 7.8 µg/mL

Compound: CC(=O)[O-].CC(=O)[O-].[Cu+2] [Copper (II) acetate]
(S)DDA with tropolone [1]: 30.80 mm
DDA zone of inhibition diameter [1]: 25.63 mm
SDDA area increase [1]: 44.39%
SDDA increase [1]: 5.17 mm
MBC (P. acnes NCTC 737 [2]; compound alone): 46 µg/mL and 34.6 µg/mL
MBC [3]: 125 µg/mL
MIC/MBC ratio [3]: 0.03
MBC (C. striatum NCTC 764): >46.5** μg/ml
MIC (C. striatum NCTC 764): >46.5** μg/ml
MIC [4]: 3.9 µg/mL

Compound: O.O.O.O.O.O=S(=O)([O-])[O-].[Cu+2] [Copper sulphate, copper (II) sulphate pentahydrate]
(S)DDA zone of inhibition diameter [1]: 17.3 (±2.59) mm
Log10 change (P. acnes NCTC 737 [5]): −1.53 Log10
Log10 cfu/ml (T4 hours) (P. acnes NCTC 737 [5]): 6.58 Log10 cfu/ml
Log10 cfu/ml (T0 hours) (P. acnes NCTC 737 [5]): 8.11 Log10 cfu/ml
MBC (P. acnes NCTC 737 [2]; compound alone): >40.9** μg/ml and 60.8 μg/ml
MIC (P. acnes NCTC 737 [2]; compound alone): 20.4 µg/mL and 30.4 µg/mL
MBC [3]: 125 µg/mL
MIC/MBC ratio [3]: 0.125
MBC (C. striatum NCTC 764): >40.9** μg/ml
MIC (C. striatum NCTC 764): >40.9** μg/ml
MIC [4]: 15.6 µg/mL

MIC (P. acnes NCTC 737 [2]; Cutibacterium acnes, NCTC737, compound alone, read-out: MIC): 31.2 µg/mL
MIC (P. acnes NCTC 737 [2]; compound alone): 62.5 µg/mL
MIC ([4]; Cutibacterium acnes, NCTC737, P. acnes NCTC 737, compound alone, read-out: MIC): 15.6 µg/mL (≈ 128 µM)
Compound: O=c1cccccc1O [Tropolone, 2-hydroxy-2,4,6-cycloheptatrien-1-one]
zone of inhibition at 200 µg/disc ([1]; Cutibacterium acnes, NCTC737, 200 μg tropolone and/or 12.5 μg copper sulphate per disc, read-out: (S)DDA zone of inhibition diameter): 19.1 mm
zone of inhibition at 12.5 µg/disc ([1]; Cutibacterium acnes, NCTC737, compound alone, 12.5 μg per disc (gluconate, picolinate 25 μg; silicate 12.4 μg; chlorophyllin 200 μg), read-out: DDA zone of inhibition diameter): 13.2 mm
Log10 change (P. acnes NCTC 737 [5]): −0.31 Log10
Log10 cfu/ml (T4 hours) (P. acnes NCTC 737 [5]): 7.8 Log10 cfu/ml
Log10 cfu/ml (T0 hours) (P. acnes NCTC 737 [5]): 8.11 Log10 cfu/ml
MBC (P. acnes NCTC 737 [2]; Cutibacterium acnes, NCTC737, compound alone, read-out: MBC): > 62.5 µg/mL
MBC ([3]; Cutibacterium acnes, NCTC737, P. acnes NCTC 737, compound alone, read-out: MBC): 250 µg/mL (≈ 2050 µM)
MIC/MBC ratio ([3]; P. acnes NCTC 737, compound alone): 0.06
MBC (C. striatum NCTC 764; C. striatum NCTC 764, compound alone): 62.5 µg/mL
MBC (C. striatum NCTC 764; Corynebacterium striatum, NCTC764, C. striatum NCTC 764, compound alone, read-out: MBC): > 62.5 µg/mL
